# From patent US8658646B2, “Pyrrolopyrazine kinase inhibitors” (Hoffmann-LaRoche Inc., priority 2011, dated 2014)
# Biological target: T1, recombinant human SYK360-635 (Homo sapiens, UniProt P43405)
# T1 construct: made in house
# Assay: Determination of IC50 of Spleen Tyrosine Kinase (SYK) inhibition, 33P ATP filtration assay
# Assay type: biochemical
# Settings: SYK aa 360-635 0.5 nM; ATP 20 μM, peptide 5 μM, 0.1% BSA; read-out: SYK_ENZYME_FILTRATION/v1, BSA
row,SMILES,IC50 [nM]
1,"Cn1nc(-c2cnc3[nH]cc(C(=O)NC4(C)CNC4)c3n2)c2ccc(F)cc21 [Example I-409, 2-(6-Fluoro-1-methyl-1H-indazol-3-yl)-5H-pyrrolo[2,3-b]pyrazine-7-carboxylic acid (3-methyl-azetidin-3-yl)-amide]",317
2,"CC(C)(C)NC(=O)c1c[nH]c2ncc(-c3n[nH]c4cc(F)ccc34)nc12 [Example I-411, 2-(6-Fluoro-1H-indazol-3-yl)-5H-pyrrolo[2,3-b]pyrazine-7-carboxylic acid tert-butylamide]",95.4
3,"Cn1nc(-c2cnc3[nH]cc(C(=O)NC(C)(C)C)c3n2)c2cc(C(F)(F)F)ccc21 [Example I-412, 2-(1-Methyl-5-trifluoromethyl-1H-indazol-3-yl)-5H-pyrrolo[2,3-b]pyrazine-7-carboxylic acid tert-butylamide]",73.6
4,"CC(O)C(C)(C)NC(=O)c1c[nH]c2ncc(-c3nn(C)c4cc(Cl)ccc34)nc12 (stereo not drawn) [Example I-413, 2-(6-Chloro-1-methyl-1H-indazol-3-yl)-5H-pyrrolo[2,3-b]pyrazine-7-carboxylic acid (2-hydroxy-1,1-dimethyl-propyl)-amide]",34.6
5,"Cn1nc(-c2cnc3[nH]cc(C(=O)NC(C)(C)CCN)c3n2)c2ccc(F)cc21 [Example I-415, 2-(6-Fluoro-1-methyl-1H-indazol-3-yl)-5H-pyrrolo[2,3-b]pyrazine-7-carboxylic acid (3-amino-1,1-dimethyl-propyl)-amide]",322
6,"Cn1nc(-c2cnc3[nH]cc(C(=O)N[C@]4(C)CC[C@H](N)CC4)c3n2)c2ccc(F)cc21 [Example I-417, 2-(6-Fluoro-1-methyl-1H-indazol-3-yl)-5H-pyrrolo[2,3-b]pyrazine-7-carboxylic acid (cis-4-amino-1-methyl-cyclohexyl)-amide]",787
7,"CC(C)(C)NC(=O)c1c[nH]c2ncc(-c3nn(CC(F)(F)F)c4cc(F)ccc34)nc12 [Example I-418, 2-[6-Fluoro-1-(2,2,2-trifluoro-ethyl)-1H-indazol-3-yl]-5H-pyrrolo[2,3-b]pyrazine-7-carboxylic acid tert-butylamide]",19.9
8,"Cn1nc(-c2cnc3[nH]cc(C(=O)NC(C)(C)C)c3n2)c2ccc(C(F)(F)F)cc21 [Example I-420, 2-(1-Methyl-6-trifluoromethyl-1H-indazol-3-yl)-5H-pyrrolo[2,3-b]pyrazine-7 carboxylic acid tert-butylamide]",33.5
9,"CC(C)(C)NC(=O)c1c[nH]c2ncc(-c3cccc4cn[nH]c34)nc12 [Example I-421, 2-(1H-Indazol-7-yl)-5H-pyrrolo[2,3-b]pyrazine-7-carboxylic acid tert-butylamide]",163
10,"Cc1ccc2c(-c3cnc4[nH]cc(C(=O)NC(C)(C)CO)c4n3)nn(CCN(C)C)c2c1 [Example I-426, 2-[1-(2-Dimethylamino-ethyl)-6-methyl-1H-indazol-3-yl]-5H-pyrrolo[2,3-b]pyrazine-7-carboxylic acid (2-hydroxy-1,1-dimethyl-ethyl)-amide]",57.4
11,"Cc1ccc2c(-c3cnc4[nH]cc(C(=O)NC(C)(C)C)c4n3)nn(CCCN(C)C)c2c1 [Example I-427, 2-[1-(3-Dimethylamino-propyl)-6-methyl-1H-indazol-3-yl]-5H-pyrrolo[2,3-b]pyrazine-7-carboxylic acid tert-butylamide]",13.3
12,"Cc1ccc2c(-c3cnc4[nH]cc(C(=O)NC(C)(C)C5CC5)c4n3)nn(C)c2c1 [Example I-428, 2-(1,6-Dimethyl-1H-indazol-3-yl)-5H-pyrrolo[2,3-b]pyrazine-7-carboxylic acid (1-cyclopropyl-1-methyl-ethyl)-amide]",11.9
13,"Cc1ccc2c(-c3cnc4[nH]cc(C(=O)NC5(CO)CC5)c4n3)nn(C)c2c1 [Example I-429, 2-(1,6-Dimethyl-1H-indazol-3-yl)-5H-pyrrolo[2,3-b]pyrazine-7-carboxylic acid (1-hydroxymethyl-cyclopropyl)-amide]",12.5
14,"Cc1ccc2c(-c3cnc4[nH]cc(C(=O)NC(C)(C)CN(C)C)c4n3)nn(C)c2c1 [Example I-430, 2-(1,6-Dimethyl-1H-indazol-3-yl)-5H-pyrrolo[2,3-b]pyrazine-7-carboxylic acid (2-dimethylamino-1,1-dimethyl-ethyl)-amide]",1360
15,"Cc1ccc2c(-c3cnc4[nH]cc(C(=O)NC5(C)CCNC5)c4n3)n[nH]c2c1 (stereo not drawn) [Example I-431, 2-(6-Methyl-1H-indazol-3-yl)-5H-pyrrolo[2,3-b]pyrazine-7-carboxylic acid (3-methyl-pyrrolidin-3-yl)-amide]",20.7
16,"Cc1ccc2c(-c3cnc4[nH]cc(C(=O)NC(C)(C)CN)c4n3)n[nH]c2c1 [Example I-435, 2-(6-Methyl-1H-indazol-3-yl)-5H-pyrrolo[2,3-b]pyrazine-7-carboxylic acid (2-amino-1,1-dimethyl-ethyl)-amide]",16.7
17,"Cc1ccc2c(-c3cnc4[nH]cc(C(=O)NC(C)(C)CN(C)C)c4n3)n[nH]c2c1 [Example I-436, 2-(6-Methyl-1H-indazol-3-yl)-5H-pyrrolo[2,3-b]pyrazine-7-carboxylic acid (2-dimethylamino-1,1-dimethyl-ethyl)-amide]",47.9
18,"Cc1ccc2c(-c3cnc4[nH]cc(C(=O)NC(C)(C)CO)c4n3)nn(CCCN3CCOCC3)c2c1 [Example I-438, 2-[6-Methyl-1-(3-morpholin-4-yl-propyl)-1H-indazol-3-yl]-5H-pyrrolo[2,3-b]pyrazine-7-carboxylic acid (2-hydroxy-1,1-dimethyl-ethyl)-amide]",27.4
19,"Cn1nc(-c2cnc3[nH]cc(C(=O)NC4CCCC(NC(=O)OC(C)(C)C)C4)c3n2)c2ccc(Cl)cc21 (stereo not drawn) [Example I-442, (3-{[2-(6-Chloro-1-methyl-1H-indazol-3-yl)-5H-pyrrolo[2,3-b]pyrazine-7-carbonyl]-amino}-cyclohexyl)-carbamic acid tert-butyl ester]",879
20,"Cn1nc(-c2cnc3[nH]cc(C(=O)NC4(CN)CC4)c3n2)c2ccc(F)cc21 [Example I-443, 2-(6-Fluoro-1-methyl-1H-indazol-3-yl)-5H-pyrrolo[2,3-b]pyrazine-7-carboxylic acid (1-aminomethyl-cyclopropyl)-amide]",656
21,"CC(C)(C)NC(=O)c1c[nH]c2ncc(-c3cccc4ccncc34)nc12 [Example I-444, 2-Isoquinolin-8-yl-5H-pyrrolo[2,3-b]pyrazine-7-carboxylic acid tert-butylamide]",1040
22,"Cc1ccc2c(-c3cnc4[nH]cc(C(=O)NC(C)(C)CO)c4n3)nn(CCN3CCOCC3)c2c1 [Example I-445, 2-[6-Methyl-1-(2-morpholin-4-yl-ethyl)-1H-indazol-3-yl]-5H-pyrrolo[2,3-b]pyrazine-7-carboxylic acid (2-hydroxy-1,1-dimethyl-ethyl)-amide]",24.7

# These reach a lower IC50. Values come first.
row,IC50 [nM],SMILES
1,4.7,"Cn1nc(-c2cnc3[nH]cc(C(=O)NC(C)(C)C)c3n2)c2ccccc21 [Example I-410, 2-(1-Methyl-1H-indazol-3-yl)-5H-pyrrolo[2,3-b]pyrazine-7-carboxylic acid tert-butylamide]"
2,5.25,"CC(C)(CO)NC(=O)c1c[nH]c2ncc(-c3n[nH]c4cc(Cl)ccc34)nc12 [Example I-414, 2-(6-Chloro-1H-indazol-3-yl)-5H-pyrrolo[2,3-b]pyrazine-7-carboxylic acid (2-hydroxy-1,1-dimethyl-ethyl)-amide]"
3,1.95,"Cn1nc(-c2cnc3[nH]cc(C(=O)N[C@]4(C)CC[C@@H](N)CC4)c3n2)c2ccc(F)cc21 [Example I-416, 2-(6-Fluoro-1-methyl-1H-indazol-3-yl)-5H-pyrrolo[2,3-b]pyrazine-7-carboxylic acid (trans-4-amino-1-methyl-cyclohexyl)-amide]"
4,6.9,"C[C@@H](CO)NC(=O)c1c[nH]c2ncc(-c3n[nH]c4cc(Cl)ccc34)nc12 [Example I-419, 2-(6-Chloro-1H-indazol-3-yl)-5H-pyrrolo[2,3-b]pyrazine-7-carboxylic acid ((S)-2-hydroxy-1-methyl-ethyl)-amide]"
5,7.7,"Cc1ccc2c(-c3cnc4[nH]cc(C(=O)NC5(C#N)CC5)c4n3)nn(C)c2c1 [Example I-424, 2-(1,6-Dimethyl-1H-indazol-3-yl)-5H-pyrrolo[2,3-b]pyrazine-7-carboxylic acid (1-cyano-cyclopropyl)-amide]"
6,5.6,"Cc1ccc2c(-c3cnc4[nH]cc(C(=O)NC5(CO)CC5)c4n3)n[nH]c2c1 [Example I-432, 2-(6-Methyl-1H-indazol-3-yl)-5H-pyrrolo[2,3-b]pyrazine-7-carboxylic acid (1-hydroxymethyl-cyclopropyl)-amide]"
7,8.55,"Cc1ccc2c(-c3cnc4[nH]cc(C(=O)NC(C)(C)C5CC5)c4n3)n[nH]c2c1 [Example I-433, 2-(6-Methyl-1H-indazol-3-yl)-5H-pyrrolo[2,3-b]pyrazine-7-carboxylic acid (1-cyclopropyl-1-methyl-ethyl)-amide]"
8,4.6,"Cc1ccc2c(-c3cnc4[nH]cc(C(=O)NC(C)(C)CO)c4n3)n[nH]c2c1 [Example I-434, 2-(6-Methyl-1H-indazol-3-yl)-5H-pyrrolo[2,3-b]pyrazine-7-carboxylic acid (2-hydroxy-1,1-dimethyl-ethyl)-amide]"
9,3.95,"Cc1ccc2c(-c3cnc4[nH]cc(C(=O)NC5(C#N)CC5)c4n3)n[nH]c2c1 [Example I-437, 2-(6-Methyl-1H-indazol-3-yl)-5H-pyrrolo[2,3-b]pyrazine-7-carboxylic acid (1-cyano-cyclopropyl)-amide]"
10,9.7,"Cc1ccc2c(-c3cnc4[nH]cc(C(=O)NC(C)(C)CO)c4n3)nn(CC(=O)N3CCOCC3)c2c1 [Example I-439, 2-[6-Methyl-1-(2-morpholin-4-yl-2-oxo-ethyl)-1H-indazol-3-yl]-5H-pyrrolo[2,3-b]pyrazine-7-carboxylic acid (2-hydroxy-1,1-dimethyl-ethyl)-amide]"
11,2.7,"CC(O)CCn1nc(-c2cnc3[nH]cc(C(=O)NC(C)(C)C)c3n2)c2cc(OC(F)F)ccc21 (stereo not drawn) [Example I-447, N-tert-Butyl-2-(5-(difluoromethoxy)-1-(3-hydroxybutyl)-1H-indazol-3-yl)-5H-pyrrolo[3,2-b]pyrazine-7-carboxamide]"
